A short description of data set [1]: Cyclic voltammetry of organic electrolytic solution. The data set is classed as physicochemical. The note with it: unit inferred; Ag/Ag+ reference electrode (0.3 M AgNO3 in acetonitrile), carbon felt working electrode. From the text:
For the purpose of measurement of cyclic voltammetry, a cell that includes an Ag/Ag^+ electrode prepared by dissolving 0.3 M AgNO3 in an acetonitrile solvent as a reference electrode, a carbon felt as a working electrode, and platinum as a counter electrode was used.
Referring to FIGS. 2A to 2C, the graphs of an electrolyte including a metal-ligand coordination compound show a reversible oxidation/reduction peak.

The nature of data set [2]: Solubility measurement in a non-aqueous polar solvent. The data set is classed as physicochemical. As to the method:
A density of the solution was measured and calculated in a molar concentration.

[3] abbreviates: in 50 mL acetonitrile and propylene carbonate 1:1, calculated in a molar concentration, unit not given.

Like-named read-outs stand apart in the source and are kept apart here.

Molecule `Cc1ccnc(-c2cc(C)ccn2)c1.Cc1ccnc(-c2cc(C)ccn2)c1.O=S(=O)([N-]S(=O)(=O)C(F)(F)F)C(F)(F)F.O=S(=O)([N-]S(=O)(=O)C(F)(F)F)C(F)(F)F.[Fe+2].c1ccc(-c2ccccn2)nc1` [Preparation Example 1, Fe^2+-(4,4′-diMebpy)2 (bpy) [TFSI]2] displayed an E^0 in data set [1] of 0.56 V.

As for `O=S(=O)([N-]S(=O)(=O)C(F)(F)F)C(F)(F)F.O=S(=O)([N-]S(=O)(=O)C(F)(F)F)C(F)(F)F.O=[N+]([O-])c1cc2cccnc2c2ncccc12.[Fe+2].c1ccc(-c2ccccn2)nc1.c1ccc(-c2ccccn2)nc1` [Preparation Example 2, Fe^2+-(5-NO2-phenanthroline)(bpy)2 [TFSI]2], the E^0 in data set [1] was determined as 0.72 V.

Take `Clc1cc(-c2ccccn2)nc(-c2ccccn2)c1.O=S(=O)([N-]S(=O)(=O)C(F)(F)F)C(F)(F)F.O=S(=O)([N-]S(=O)(=O)C(F)(F)F)C(F)(F)F.[Fe+2].c1ccc(-c2cccc(-c3ccccn3)n2)nc1` [Preparation Example 3, Fe^2+-(terpy)(4′-chloro-terpy) [TFSI]2]: in data set [2], the Solubility was 1.33 and the “Solubility compared with the compounds that include identical ligands (dipole moment sum 0)” value is “higher solubility”. The E^0 in data set [1] came out at 0.72 V.

With `O=S(=O)([N-]S(=O)(=O)C(F)(F)F)C(F)(F)F.O=S(=O)([N-]S(=O)(=O)C(F)(F)F)C(F)(F)F.[Fe+2].c1ccc(-c2ccccn2)nc1.c1ccc(-c2ccccn2)nc1.c1ccc(-c2ccccn2)nc1` [Preparation Example 4, Fe^2+-(bpy)3 [TFSI]2], in data set [1], the E^0 was determined as 0.68 V.

As to `Cc1ccnc(-c2cc(C)ccn2)c1.Cc1ccnc(-c2cc(C)ccn2)c1.Cc1ccnc(-c2cc(C)ccn2)c1.O=S(=O)([N-]S(=O)(=O)C(F)(F)F)C(F)(F)F.O=S(=O)([N-]S(=O)(=O)C(F)(F)F)C(F)(F)F.[Fe+2]` [Preparation Example 5, Fe^2+-(4,4′-diMe-bpy)3 [TFSI]2], the Solubility in data set [2] was 0.65. In data set [1], this molecule came in with an E^0 of 0.43 V.

As to `O=S(=O)([N-]S(=O)(=O)C(F)(F)F)C(F)(F)F.O=S(=O)([N-]S(=O)(=O)C(F)(F)F)C(F)(F)F.[Fe+2].c1ccc(-c2cccc(-c3ccccn3)n2)nc1.c1ccc(-c2cccc(-c3ccccn3)n2)nc1` [Preparation Example 7, Fe^2+-(terpy)2 [TFSI]2], in data set [2] (setting [3]), the Solubility is listed as 1.20. The molecule further yielded an E^0 in data set [1] of 0.7 V.

Regarding `Clc1cc(-c2ccccn2)nc(-c2ccccn2)c1.Clc1cc(-c2ccccn2)nc(-c2ccccn2)c1.O=S(=O)([N-]S(=O)(=O)C(F)(F)F)C(F)(F)F.O=S(=O)([N-]S(=O)(=O)C(F)(F)F)C(F)(F)F.[Fe+2]` [Preparation Example 8, Fe^2+-(4′-chloro-terpy)2 [TFSI]2], in data set [2] (setting [3]), the Solubility was 0.75. In addition, the E^0 in data set [1] worked out at 0.78 V.

In the case of “Fe^2+-(NO2-phenanthroline)3 [TFSI]2 [Preparation Example 6]”, the Solubility in data set [2] worked out at 1020 mM. Besides, in data set [1], the E^0 was 0.88 V.

These data come from patent publication US9520611B2, “Redox flow battery” (SAMSUNG ELECTRONICS CO., LTD., priority 2013, dated 2016).
